Experimental data published in PMC5552351, “Bacteriological profiling of diphenylureas as a novel class of antibiotics against methicillin-resistant Staphylococcus aureus” (PLoS ONE, 2017).
Converted amounts (≈) assume the structure as drawn.

Key:
Bacillus subtilis = test: Bacterial Cytological Profiling (BCP); format: cell-based; details: two hours, LB-MSM osmotically buffered media, 37 °C
Procedure: B. subtilis cells were grown in Luria Bertani (LB) medium at 37 °C until the optical density at 600 nm (OD600) was ~0.20. Cells were then left untreated or treated with compound 1 or control antibiotics in the presence of methylsulfonylmethane (MSM), as described previously. After two hours, cells were stained with FM 4−64 (1 μg/mL) to visualize cell membranes; DAPI (1 μg/ml) to visualize DNA, and SYTOX Green (1 μg/mL), a vital stain which is normally excluded from cells with an intact membrane but brightly stains cells that are lysed. Images were collected using a Delta Vision Spectris Deconvolution microscope, as described previously.

MRSA USA400 (NRS123) [1] = test: MIC in presence and absence of human serum albumin; format: cell-based, Staphylococcus aureus; details: for MIC: Staphylococcus aureus, TSB
Procedure: The broth microdilution assay presented above was used to assess if compounds 1 and 2 bind to a major component of blood (human serum albumin) thus limiting the free fraction of drug available to exert its antibacterial effect. […] CaCl2 ([…]) was added to wells containing daptomycin, per the CLSI guidelines.

MRSA USA400 (NRS123) [2] = test: multi-step resistance selection; format: cell-based, Staphylococcus aureus; details: for increase in MIC after fourteen passages: fourteen passages over two weeks; for MIC: Staphylococcus aureus, read-out: initial MIC
Procedure: To assess MRSA’s ability to develop resistance to the diphenylurea compounds after repeated exposure, a multi-step resistance selection experiment was conducted. […] Resistance was classified as a greater than four-fold increase in the initial MIC, as reported elsewhere.

[3] = test system: S. aureus NRS107 (RN4220); test: accumulation of UDP-N-acetylmuramyl pentapeptide (HPLC-MS); format: cell-based, Staphylococcus aureus; details: 10 × MIC, 30 minutes
Procedure: The accumulation of UDP-N-acetylmuramyl pentapeptide was detected using a procedure described in a previous study, with the following modifications. S. aureus NRS107 (RN4220), in early logarithmic growth stage (OD600 ~ 0.60), was incubated with 130 μg/mL chloramphenicol for 15 minutes at 37°C. […] Untreated samples served as a negative control. Samples were centrifuged at 10,000 rpm for five minutes, the supernatant discarded, and the pellet re-suspended in sterile deionzined water (1 mL). The pellet was boiled at […] for 30 minutes before samples were chilled on ice for 10 minutes. UDP-N-acetylmuramyl-pentapeptide was measured using an Agilent High Performance Liquid Chromatography coupled to a time-of-flight Mass Spectrometer (HPLC-MS). A Waters XBridge Phenyl (2.1 × 100 mm, 3.5 μm) chromatography column was used, with mobile phases of water, 0.1% formic acid (Buffer A) and acetonitrile, 0.1% formic acid (Buffer B). A gradient of 5–20% Buffer B over 14 minutes was used, with a flow rate of 0.3 mL/min. An electrospray source was used, in positive ionization mode. Extracted Ion Chromatograms (EIC) were generated at a mass-to-charge ratio (m/z) of 1150.3588 (20 ppm window). Mass error for UDP-N-acetylmuramyl-pentapeptide was <1 ppm.

[4] = test system: S. aureus ATCC 6538 biofilm; test: biofilm mass disruption, crystal violet reporter assay; format: cell-based, Staphylococcus aureus; details: all concentrations tested
Procedure: (§1) Compounds 1, 2, and vancomycin were examined for their ability to eradicate mature staphylococcal biofilm using the microtiter dish biofilm formation assay. S. epidermidis NRS101 and S. aureus ATCC 6538 were selected as the test organisms given their ability to form strong adherent biofilm. An overnight culture of bacteria was diluted (1:100 in TSB + 1% glucose) and transferred to a 96-well plate. The plate was incubated for 24 hours at 37 °C in order to form adherent biofilm on the surface of the plate wells. The medium containing the bacterial suspension was removed and the biofilm was washed with sterile PBS to remove planktonic cells. Compounds 1, 2, or vancomycin (from 128 to 1 μg/mL), in triplicate, in TSB were incubated with the biofilm for 24 hours at 37 °C.
(§2) Compounds were subsequently removed. The biofilm was washed with PBS and then stained with 1% (w/v) crystal violet for 40 minutes. The stain was removed and wells were washed with sterile PBS. Wells were next decolorized using 95% ethanol. The optical density of each well at 595 nm was measured using a microplate reader.

[5] = test system: S. epidermidis NRS101 biofilm; test: bacterial CFU inside mature biofilm post-treatment; format: cell-based, Staphylococcus epidermidis; details: 24 hours
Procedure: as §1
(§3) For enumeration of viable CFU inside the biofilm, compounds were removed, wells were washed with sterile PBS, and treated with 0.25% Trypsin-2.21 mM EDTA solution as described elsewhere. The solution containing cells was transferred to a 96-well plate, serially diluted in PBS, and plated on TSA. Plates were incubated at 37 °C for 19 hours before viable CFU were counted. Data are presented as average log10(CFU/mL) of bacteria present in the biofilm post-treatment.

[6] = test system: S. epidermidis NRS101 biofilm; test: biofilm mass disruption, crystal violet reporter assay; format: cell-based, Staphylococcus epidermidis; details: 24-hour treatment
Procedure: as §1, §2

S. aureus ATCC 6538 = test: broth microdilution MIC; format: cell-based; details: Staphylococcus aureus, ATCC6538
Procedure: (§4) The broth microdilution assay was employed to determine the MIC of compounds 1, 2, and vancomycin against five MRSA strains, four VRSA strains, one highly mupirocin-resistant S. aureus strain, one biofilm-forming S. aureus (ATCC 6538) strain, and one biofilm-forming methicillin-resistant S. epidermidis strain, as per the guidelines of the Clinical and Laboratory Standards Institute (CLSI). […] The MBC was determined by plating an aliquot (5 μL) from wells with no growth onto TSA plates. Plates were incubated at 37 °C for 19 hours before recording the MBC (concentration where no growth was observed on TSA plates).

S. epidermidis NRS101 = test: broth microdilution MIC; format: cell-based; details: Staphylococcus epidermidis, NRS101
Procedure: as §4

[7] = test system: clinically-relevant strains of MRSA and VRSA; test: broth microdilution MIC/MBC, panel summary; format: cell-based; details: Staphylococcus aureus, read-out: concentration inhibiting growth of MRSA isolates (MIC)
Procedure: as §4

MRSA USA300 (NRS384) = test: time-kill assay; format: cell-based, Staphylococcus aureus; details: 4 × MIC
VRS10 [8] = test: microbe, parasite or virus in culture; format: cell-based, Staphylococcus aureus; details: Staphylococcus aureus, read-out: MIC of vancomycin
Procedure: (§5) CAMHB was inoculated with strain VRS4 or strain VRS10 (5×10^5 CFU/mL), as described previously, with the following modifications. Aliquots ([…]) of the bacterial suspension were divided into micro-centrifuge tubes and compounds 1 or 2 (at ½ × MIC) were introduced into each tube. After 30 minutes of incubation at room temperature, samples from each tube were transferred to a new micro-centrifuge tube, prior to addition of vancomycin (at 128 μg/mL). Plates containing the test agents and bacteria were then incubated at 37 °C for 20–22 hours after which the MIC value was determined. A fold-reduction was calculated by comparing the MIC of vancomycin compared to the MIC of vancomycin given in combination with compounds 1 or 2 (at ½ × MIC).

VRS4 [9] = test: microbe, parasite or virus in culture; format: cell-based, Staphylococcus aureus; details: Staphylococcus aureus, read-out: MIC of vancomycin
Procedure: as §5

[10] = test system: S. aureus ATCC 6538 biofilm; test: bacterial CFU inside mature biofilm post-treatment; format: cell-based, Staphylococcus aureus; details: 64 μg/mL, 24 hours
Procedure: as §1, §3

MRSA NRS484 (USA1100) = test: broth microdilution MIC/MBC; format: cell-based; details: Staphylococcus aureus
Procedure: as §4

MRSA NRS123 (USA400) = test: broth microdilution MIC/MBC; format: cell-based; details: Staphylococcus aureus
Procedure: as §4

MRSA NRS384 (USA300) = test: broth microdilution MIC/MBC; format: cell-based; details: Staphylococcus aureus
Procedure: as §4

S. aureus NRS107 = test: broth microdilution MIC/MBC; format: cell-based; details: Staphylococcus aureus, NRS107
Procedure: as §4

VRS10 [11] = test: broth microdilution MIC/MBC; format: cell-based; details: Staphylococcus aureus
Procedure: as §4

VRS7 = test: broth microdilution MIC/MBC; format: cell-based; details: Staphylococcus aureus
Procedure: as §4

MRSA NRS387 (USA800) = test: broth microdilution MIC/MBC; format: cell-based; details: Staphylococcus aureus
Procedure: as §4

VRS4 [12] = test: broth microdilution MIC/MBC; format: cell-based; details: Staphylococcus aureus
Procedure: as §4

MRSA NRS483 (USA1000) = test: broth microdilution MIC/MBC; format: cell-based; details: Staphylococcus aureus
Procedure: as §4

VRS11a = test: broth microdilution MIC/MBC; format: cell-based; details: Staphylococcus aureus
Procedure: as §4

[13] = 4% human serum albumin, read-out: MIC vs. MRSA USA400 (+HSA)
[14] = without human serum albumin, read-out: MIC vs. MRSA USA400 (-HSA)

N[C@@H]1CON=C1O [D-cycloserine]
cytological profile (cell morphology) (Bacillus subtilis): bulges and misshapen cells

CCCCCCCCCC(=O)N[C@@H](Cc1c[nH]c2ccccc12)C(=O)N[C@H](CC(N)=O)C(=O)N[C@@H](CC(=O)O)C(=O)N[C@@H]1C(=O)NCC(=O)N[C@@H](CCCN)C(=O)N[C@@H](CC(=O)O)C(=O)N[C@H](C)C(=O)N[C@@H](CC(=O)O)C(=O)NCC(=O)N[C@H](CO)C(=O)N[C@@H]([C@H](C)CC(=O)O)C(=O)N[C@@H](CC(=O)c2ccccc2N)C(=O)O[C@@H]1C [Daptomycin, daptomycin, reference compound]
MIC (MRSA USA400 (NRS123) [1]; [13]): 64 µg/mL (≈ 39.5 µM)
MIC (MRSA USA400 (NRS123) [1]; [14]): 2 µg/mL (≈ 1.23 µM)

CC(=O)NC[C@H]1CN(c2ccc(N3CCOCC3)c(F)c2)C(=O)O1 [Linezolid, linezolid, reference compound]
increase in MIC after fourteen passages (MRSA USA400 (NRS123) [2]; MRSA USA400 (NRS123)): one-fold
MIC (MRSA USA400 (NRS123) [2]): 2 µg/mL (≈ 5.93 µM)
increase in MIC in the presence of HSA (MRSA USA400 (NRS123) [1]; MRSA USA400, 4% human serum albumin vs none): remained unchanged
MIC (MRSA USA400 (NRS123) [1]; [13]): 1 µg/mL (≈ 2.96 µM)
MIC (MRSA USA400 (NRS123) [1]; [14]): 1 µg/mL (≈ 2.96 µM)

CN[C@H](CC(C)C)C(=O)N[C@H]1C(=O)N[C@@H](CC(N)=O)C(=O)N[C@H]2C(=O)N[C@H]3C(=O)N[C@H](C(=O)N[C@H](C(=O)O)c4cc(O)cc(O)c4-c4cc3ccc4O)[C@H](O)c3ccc(c(Cl)c3)Oc3cc2cc(c3O[C@@H]2O[C@H](CO)[C@@H](O)[C@H](O)[C@H]2O[C@H]2C[C@](C)(N)[C@H](O)[C@H](C)O2)Oc2ccc(cc2Cl)[C@H]1O [Vancomycin, vancomycin, reference compound]
UDP-N-acetylmuramyl pentapeptide accumulation [3]: notable increase
change in optical density of S. aureus biofilm (biofilm mass) [4]: no change
reduction in bacterial CFU within S. epidermidis biofilm ([5]; 64 μg/mL): 1.4 log10
reduction in bacterial CFU within S. epidermidis biofilm ([5]; 128 μg/mL): 3.14 log10
S. epidermidis biofilm mass, OD595 ([6]; 128 μg/mL, untreated control OD595 = 4.00): 3.80
reduction in S. epidermidis biofilm mass ([6]; 8 to 64 μg/mL, vs untreated control): no significant reduction
MIC (S. aureus ATCC 6538): 0.5 µg/mL (≈ 0.345 µM)
MIC (S. epidermidis NRS101): 1 µg/mL (≈ 0.69 µM)
MIC [7]: 0.5 to 1 µg/mL (≈ 0.345 to 0.69 µM)
time to completely eradicate a high inoculum of MRSA (~10^6 CFU/mL) (MRSA USA300 (NRS384)): 24 hours
MIC (VRS10 [8]): 512 µg/mL
MIC (VRS4 [9]): 512 µg/mL
reduction in bacterial CFU within S. aureus biofilm [10]: 1.0 log10
MBC (MRSA NRS484 (USA1100)): 2 µg/mL (≈ 1.38 µM)
MIC (MRSA NRS484 (USA1100)): 1 µg/mL (≈ 0.69 µM)
MBC (MRSA NRS123 (USA400)): 1 µg/mL (≈ 0.69 µM)
MIC (MRSA NRS123 (USA400)): 1 µg/mL (≈ 0.69 µM)
MBC (MRSA NRS384 (USA300)): 0.5 µg/mL (≈ 0.345 µM)
MIC (MRSA NRS384 (USA300)): 0.5 µg/mL (≈ 0.345 µM)
MBC (S. aureus NRS107): 2 µg/mL (≈ 1.38 µM)
MIC (S. aureus NRS107): 1 µg/mL (≈ 0.69 µM)
MBC (VRS10 [11]): > 64 µg/mL
MIC (VRS10 [11]): > 64 µg/mL
MBC (VRS7): > 64 µg/mL
MIC (VRS7): 64 µg/mL (≈ 44.2 µM)
MBC (MRSA NRS387 (USA800)): 1 µg/mL (≈ 0.69 µM)
MIC (MRSA NRS387 (USA800)): 0.5 µg/mL (≈ 0.345 µM)
MBC (VRS4 [12]): > 64 µg/mL
MIC (VRS4 [12]): 64 µg/mL (≈ 44.2 µM)
MBC (MRSA NRS483 (USA1000)): 1 µg/mL (≈ 0.69 µM)
MIC (MRSA NRS483 (USA1000)): 1 µg/mL (≈ 0.69 µM)
MBC (VRS11a): > 64 µg/mL
MIC (VRS11a): > 64 µg/mL

O=C(O)c1cn(C2CC2)c2cc(N3CCNCC3)c(F)cc2c1=O [ciprofloxacin]
increase in MIC after fourteen passages (MRSA USA400 (NRS123) [2]; MRSA USA400 (NRS123)): seven-fold
increase in MIC after seven passages (MRSA USA400 (NRS123) [2]; MRSA USA400 (NRS123), seven passages): three-fold
MIC (MRSA USA400 (NRS123) [2]): 1 µg/mL (≈ 3.02 µM)

Cc1onc(-c2ccccc2Cl)c1C(=O)N[C@@H]1C(=O)N2[C@@H]1SC(C)(C)[C@@H]2C(=O)O [cloxacillin]
cytological profile (cell morphology) (Bacillus subtilis): bulges at the poles of the cells

Cc1onc(-c2ccccc2)c1C(=O)N[C@@H]1C(=O)N2[C@@H]1SC(C)(C)[C@@H]2C(=O)O [oxacillin]
cytological profile (cell morphology) (Bacillus subtilis): bulges and misshapen cells

ramoplanin
cytological profile (cell morphology) (Bacillus subtilis): bulges and misshapen cells
